What was measured:
M. tuberculosis H37Rv = assay: ex vivo anti-mycobacterial activity, growth in mouse macrophages; format: cell-based, Mycobacterium tuberculosis; conditions: for Macrophage Data, Monolayer 1 / Macrophage Data, Monolayer 2 / Macrophage Data, Monolayer 3 / Macrophage Data, Monolayer 4 / Macrophage Data, Monolayer mean: J774 mouse macrophages infected with M. tuberculosis H37Rv; for Macrophage Data, Monolayer 1 / Macrophage Data, Monolayer 2 / Macrophage Data, Monolayer 3 / Macrophage Data, Monolayer 4: 24 hours with compound; for Macrophage Data, Monolayer mean: mean of monolayers 1-4, 24 hours; for in vitro and ex vivo activity against Mycobacterium tuberculosis compared with rifampicine (in words): general statement of the description
[1] = system: Bacillus subtilis ATCC 6633; assay: double-dosage method of diffusion in agar; format: cell-based; conditions: for relative activity, Bacillus subtilis ATCC 6633: activity of rifampicin taken as 1000, agar diffusion, 5 and 10 μg/ml, pH 7.4; for antibiotic activity compared with rifampicine (in words): against Bacillus subtilis
Klebsiella pneumoniae = assay: double-dosage method of diffusion in agar; conditions: for relative activity, Klebsiella pneumoniae: activity of rifampicin taken as 1000, agar diffusion, 5 and 10 μg/ml, pH 7.4
Protocol: (§1) This test is based on the logarithmic dependence between the size of the inhibition area associated with the bacterial growth in a layer of agar (response) and the quantity of the applied antibiotic.
(§2) From these solutions buffered solutions were prepared in phosphate buffer, pH 7.4 at concentrations of 5 and 10 μg/ml.
(§3) An initial suspension of the test microorganism (Bacillus subtilis ATCC 6633, Escherichia coli, Bacillus mycoide, Klebsiella pneumoniae, Pseudomonas aeruginosa) was prepared having a UV-light transmission of about 25%. A suitable diffusion medium (for example for Bacillus subtilis: 1 g pepton, 3 g yeast extract, 15-18 g agar, in 1 l water, pH 7.8-8.0 after sterilization) was inoculated with 0.5 ml of the initial suspension per 100 ml medium at a temperature of 60-65° C. 20 ml of the mixture each was filled into Petri's dishes (diameter 100 mm). After hardening of the medium four pits (diameter 5 mm) were placed in each dish and onto every pit 90 μl of the solutions of the reference and the tested compounds were added. The dishes were incubated at 37° C. for at least 15 hours. The sizes (diameters) of the areas of inhibition were then measured with an accuracy of 0.1 mm.
(§4) The activity A was calculated according to • lg A=(lv/w) with • I=lg (high concentration/low concentration), • v=(ΣX1+ΣX2)−(ΣP1+ΣP2), and • w=(ΣX2+ΣP2)−(ΣX1+ΣP1), with • X1: area size in mm at low concentration of the sample, • X2: area size in mm at high concentration of the sample, • P1: area size in mm at low concentration of the reference, • P2: area size in mm at low concentration of the reference,

Pseudomonas aeruginosa = assay: double-dosage method of diffusion in agar; conditions: for relative activity, Pseudomonas aeruginosa: activity of rifampicin taken as 1000, agar diffusion, 5 and 10 μg/ml, pH 7.4
Protocol: as §1, §2, §3, §4

Escherichia coli = assay: double-dosage method of diffusion in agar; conditions: for relative activity, Escherichia coli: activity of rifampicin taken as 1000, agar diffusion, 5 and 10 μg/ml, pH 7.4
Protocol: as §1, §2, §3, §4

Bacillus mycoide = assay: double-dosage method of diffusion in agar; conditions: activity of rifampicin taken as 1000, 5 and 10 μg/ml, pH 7.4
Protocol: as §1, §2
An initial suspension of the test microorganism (Bacillus subtilis ATCC 6633, Escherichia coli, Bacillus mycoide, Klebsiella pneumoniae, Pseudomonas aeruginosa) was prepared having a UV-light transmission of about 25%. A suitable diffusion medium (for example for Bacillus subtilis: 1 g pepton, 3 g yeast extract, 15-18 g agar, in 1 l water, pH 7.8-8.0 after sterilization) was inoculated with 0.5 ml of the initial suspension per 100 ml medium at a temperature of 60-65° C. 20 ml of the mixture each was filled into Petri's dishes (diameter 100 mm). […] The sizes (diameters) of the areas of inhibition were then measured with an accuracy of 0.1 mm.
as §4

SMILES | Macrophage Data, Monolayer 1 (M. tuberculosis H37Rv) | Macrophage Data, Monolayer 2 (M. tuberculosis H37Rv) | Macrophage Data, Monolayer 3 (M. tuberculosis H37Rv) | Macrophage Data, Monolayer 4 (M. tuberculosis H37Rv) | Macrophage Data, Monolayer mean (M. tuberculosis H37Rv) | relative activity, Bacillus subtilis ATCC 6633 [1] | relative activity, Klebsiella pneumoniae (Klebsiella pneumoniae) | relative activity, Pseudomonas aeruginosa (Pseudomonas aeruginosa) | in vitro and ex vivo activity against Mycobacterium tuberculosis compared with rifampicine (in words) (M. tuberculosis H37Rv) | relative activity, Escherichia coli (Escherichia coli) | relative activity, Bacillus mycoide (Bacillus mycoide) | antibiotic activity compared with rifampicine (in words) [1] | antibiotic activity compared with rifampicine (in words) ([1]; listed as N-(methyloxycarbonyl)-3-aminorifamycin S) | antibiotic activity compared with rifampicine (in words) ([1]; listed as methyl) | antibiotic activity compared with rifampicine (in words) (Klebsiella pneumoniae; against K. pneumoniae) | antibiotic activity compared with rifampicine (in words) (Pseudomonas aeruginosa; against P. aeruginosa) | antibiotic activity compared with rifampicine (in words) (Escherichia coli; against E. coli)
CO[C@H]1/C=C/O[C@@]2(C)Oc3c(C)c(O)c4c(O)c(c(/C=N/N5CCN(C)CC5)c(O)c4c3C2=O)NC(=O)/C(C)=C\C=C\[C@H](C)[C@H](O)[C@@H](C)[C@@H](O)[C@@H](C)[C@H](OC(C)=O)[C@@H]1C [rifampicine, reference compound] | 0.00 CFU/ml | 200.00 CFU/ml | 600.00 CFU/ml | 800.00 CFU/ml | 400.00 CFU/ml | – | – | – | – | – | – | – | – | – | – | – | –
CCOC(=O)NC1=C2NC(=O)C(C)=CC=CC(C)C(O)C(C)C(O)C(C)C(OC(C)=O)C(C)C(OC)C=COC3(C)Oc4c(C)c(O)c(c(c4C3=O)C1=O)C2=O (stereo not drawn) [R = ethyl, N-(Ethyloxycarbonyl)-3-aminorifamycin S] | 0.00 CFU/ml | 200.00 CFU/ml | 0.00 CFU/ml | 0.00 CFU/ml | 50.00 CFU/ml | 2050 | 1030 | 920 | at least as high or even higher as the activity of rifampicine | 690 | 1150 | – | – | – | – | – | –
COC1C=COC2(C)Oc3c(C)c(O)c4c(c3C2=O)C(=O)C(NC(=O)OCCBr)=C(NC(=O)C(C)=CC=CC(C)C(O)C(C)C(O)C(C)C(OC(C)=O)C1C)C4=O (stereo not drawn) [R = 2-bromoethyl, N-(2-Bromoethyloxycarbonyl)-3-aminorifamicin S] | – | – | – | – | – | 6600 | – | – | – | – | – | about six times higher than rifampicine | – | – | – | – | –
COC1C=COC2(C)Oc3c(C)c(O)c4c(c3C2=O)C(=O)C(NC(=O)OCc2ccc([N+](=O)[O-])cc2)=C(NC(=O)C(C)=CC=CC(C)C(O)C(C)C(O)C(C)C(OC(C)=O)C1C)C4=O (stereo not drawn) [R = 4-nitrobenzyl, N-(4-Nitrobenzyloxycarbonyl)-3-aminorifamicin S] | – | – | – | – | – | 5400 | – | – | – | – | – | about six times higher than rifampicine | – | – | – | – | –
COC(=O)NC1=C2NC(=O)C(C)=CC=CC(C)C(O)C(C)C(O)C(C)C(OC(C)=O)C(C)C(OC)C=COC3(C)Oc4c(C)c(O)c(c(c4C3=O)C1=O)C2=O (stereo not drawn) [R = methyl, N-(Methyloxycarbonyl)-3-aminorifamycin S] | 0.00 CFU/ml | 0.00 CFU/ml | 0.00 CFU/ml | 200.00 CFU/ml | 50.00 CFU/ml | 6000 | 1900 | 1750 | at least as high or even higher as the activity of rifampicine | 2100 | 2000 | – | twice as high as rifampicine | about six times higher than rifampicine | twice as high as rifampicine | twice as high as rifampicine | twice as high as rifampicine
